Legend:
Test in all cases: CellTiter-Glo cell viability, IC50 determination
Type in all cases: cell-based
Hep3B = conditions: Homo sapiens, 72 h; Hep3B cell line; 3-day CTG assay; read-out: Absolute IC50
Procedure: (§1) All the cells will be cultured in the media supplemented with 10% FBS except for which are marked specially, in the temperature of 37° C., 5% CO2 and 95% humidity.
(§2) Cell viability is assayed by using CellTiter-Glo® Luminescent Cell Viability Assay Kit (Cat. No.: G7572, Promega. Store at −20° C.). To prepare the CellTiter_Glo Reagent, the CellTiter-Glo Buffer was thawed and equilibrated to room temperature prior to use. For convenience the CellTiter-Glo Buffer may be thawed and stored at room temperature for up to 48 hours prior to use. The lyophilized CellTiter-Glo Substrate is equilibrated to room temperature prior to use. The appropriate volume (100 ml) of CellTiter-Glo Buffer is transferred into the amber bottle containing CellTiter-Glo Substrate to reconstitute the lyophilized enzyme/substrate mixture, which forms the CellTiter-Glo Reagent. In certain cases, the entire liquid volume of the CellTiter-Glo Buffer bottle may be added to the CellTiter-Glo Substrate vial. Mix by gently vortexing, swirling or by inverting the contents to obtain a homogeneous solution. The CellTiter-Glo Substrate should go into solution easily in less than one minute.
(§3) The day before the experiment (Day −1), cells were dissociated during the logarithmic growth period with Cell Disassociation Buffer (Gibco 13151-014) and mixed with appropriate cell media and centrifuge at 1000 rpm for 3 minutes. The cells were re-suspended and counted using Countstar before adjusting cell concentrations to optimized density (i.e. 4.44×10^4 cells/ml) with respective culture medium listed in Table 1 for 3-day CTG assay (The cell density was optimized before actual study; cell density used in the test may vary for different cell lines). 90 μl cell suspensions were added to two 96-well plates (plates A and B) with the final cell density of 4×10^3 cells/well for 3-day CTG assay (the cell density was optimized before actual study; cell density used in the test may vary for different cell lines). The plate A and B group were incubated for overnight in humidified incubator at 37° C. with 5% CO2.
(§4) On Day 0, for plate A group, 10 μl culture medium was added to each well for T0 reading. CellTiter-Glo® Reagent was added at equal volume of cell culture medium present in each well (e.g., add 100 μl of reagent to 100 μl of medium containing cells for a 96-well plate). Contents were mixed for 2 minutes on an orbital shaker to facilitate cell lysis. The plate was allowed to incubate at room temperature for 10 minutes to stabilize luminescent signal. Backseal black sticker was added to the bottom of each plate. Luminescence was recorded using EnVision Multi Label Reader. This formed the basis for T0 value.
(§5) On Day 0, the test articles and positive controls were dissolved at the concentration indicated at Test Article Dilution map. 100× solution in PBS was prepared and then diluted with appropriate culture media (1:10) into 10×working solutions. 10 μl (10×) drug solutions were dispensed in each well (triplicate for each drug concentration) of the plate B group according to plate inoculation map. The test plates were incubated for […] in the humidified incubator at 37° with 5% CO2.
(§6) On Day 3, CellTiter-Glo® Reagent was added at equal volume of cell culture medium present in each well (e.g., add 100 μl of reagent to 100 μl of medium containing cells for a 96-well plate). Contents were mixed for 2 minutes on an orbital shaker to induce cell lysis. The plate was allowed to incubate at room temperature for 10 minutes to stabilize luminescent signal. Backseal black sticker was placed to the bottom of each plate. Luminescence was recorded using EnVision Multi Label Reader.
(§7) In order to calculate IC50s, a dose-response curve was fitted using a nonlinear regression model with a sigmoidal dose response. The formula for calculating surviving rate was shown below; Absolute IC50 is calculated where Y axis set at 50% using GraphPad Prism 5.0. Software. […]

NCI-H23 = conditions: Homo sapiens, 72 h; NCI-H23 cell line; 3-day CTG assay; read-out: Absolute IC50
Procedure: as §1, §2, §3, §4, §5, §6, §7

PANC-1 = conditions: Homo sapiens, 72 h; PANC-1 cell line; 3-day CTG assay; read-out: Absolute IC50
Procedure: as §1, §2, §3, §4, §5, §6, §7

Calu6 = conditions: Homo sapiens, Calu-6, 72 h; Calu6 cell line; 3-day CTG assay; read-out: Absolute IC50
Procedure: as §1, §2, §3, §4, §5, §6, §7

SNU-1 = conditions: Homo sapiens, SNU1, 72 h; SNU-1 cell line; 3-day CTG assay; read-out: Absolute IC50
Procedure: as §1, §2, §3, §4, §5, §6, §7

MDA-MB-231 = conditions: Homo sapiens, 72 h; MDA-MB-231 cell line; 3-day CTG assay; read-out: Absolute IC50
Procedure: as §1, §2, §3, §4, §5, §6, §7

SW620 = conditions: Homo sapiens, SW-620, 72 h; SW620 cell line; 3-day CTG assay; read-out: Absolute IC50
Procedure: as §1, §2, §3, §4, §5, §6, §7

DLD-1 = conditions: Homo sapiens, 72 h; DLD-1 cell line; 3-day CTG assay; read-out: Absolute IC50
Procedure: as §1, §2, §3, §4, §5, §6, §7

LS513 = conditions: Homo sapiens, LS-513, 72 h; LS513 cell line; 3-day CTG assay; read-out: Absolute IC50
Procedure: as §1, §2, §3, §4, §5, §6, §7

Sk-Mel-5 = conditions: Homo sapiens, 72 h; Sk-Mel-5 cell line; 3-day CTG assay; read-out: Absolute IC50
Procedure: as §1, §2, §3, §4, §5, §6, §7

BxPc-3 = conditions: Homo sapiens, 72 h; BxPc-3 cell line; 3-day CTG assay; read-out: Absolute IC50
Procedure: as §1, §2, §3, §4, §5, §6, §7

22RV1 = conditions: Homo sapiens, 72 h; 22RV1 cell line; 3-day CTG assay; read-out: Absolute IC50
Procedure: as §1, §2, §3, §4, §5, §6, §7

KYSE150 = conditions: Homo sapiens, KYSE-150, 72 h; KYSE150 cell line; 3-day CTG assay; read-out: Absolute IC50
Procedure: as §1, §2, §3, §4, §5, §6, §7

HCT-15 = conditions: Homo sapiens, 72 h; HCT-15 cell line; 3-day CTG assay; read-out: Absolute IC50
Procedure: as §1, §2, §3, §4, §5, §6, §7

NCI-H1792 = conditions: Homo sapiens, 72 h; NCI-H1792 cell line; 3-day CTG assay; read-out: Absolute IC50
Procedure: as §1, §2, §3, §4, §5, §6, §7

NCI-H2009 = conditions: Homo sapiens, 72 h; NCI-H2009 cell line; 3-day CTG assay; read-out: Absolute IC50
Procedure: as §1, §2, §3, §4, §5, §6, §7

SMILES	IC50 (Hep3B) [nM]	IC50 (NCI-H23) [nM]	IC50 (PANC-1) [nM]	IC50 (Calu6) [nM]	IC50 (SNU-1) [nM]	IC50 (MDA-MB-231) [nM]	IC50 (SW620) [nM]	IC50 (DLD-1) [nM]	IC50 (LS513) [nM]	IC50 (Sk-Mel-5) [nM]	IC50 (BxPc-3) [nM]	IC50 (22RV1) [nM]	IC50 (KYSE150) [nM]	IC50 (HCT-15) [nM]	IC50 (NCI-H1792) [nM]	IC50 (NCI-H2009) [nM]
CC(=O)Nc1cccc(-n2c(=O)n(C3CC3)c(=O)c3c(Nc4ccc(I)cc4F)n(C)c(=O)c(C)c32)c1 [Trametinib, N-(3-{3-Cyclopropyl-5-[(2-fluoro-4-iodophenyl)amino]-6,8-dimethyl-2,4,7-trioxo-3,4,6,7-tetrahydropyrido[4,3-d]pyrimidin-1(2H)-yl}phenyl)acetamide]	50	300	330000	140	100	24000	10	6520	10	10	30	202000	5280	29300	160	410
O=C(Nc1ccc2[nH]nc(-c3ccncc3)c2c1)[C@@H]1CCN(CC(=O)N2CCN(c3ccc(-c4ncccn4)cc3)CC2)C1 [SCH772984, (R)-1-(2-oxo-2-(4-(4-(pyrimidin-2-yl)phenyl)piperazin-1-yl)ethyl)-N-(3-(pyridin-4-yl)-1H-indazol-5-yl)pyrrolidine-3-carboxamide]	250	3690	64300	560	640	32300	260	52800	780	200	320	5010	1720	15600	4700	4360

From patent US10501805B2, “Methods for determining responsiveness to MEK/ERK inhibitors” (CROWN BIOSCIENCE, INC. (TAICANG), priority 2014, dated 2019)
